Experiments:
Type in all cases: cell-based
[1] = test system: LPA-induced cation conductance in human SS red cells; experiment: On-cell patch clamp of LPA-induced cation conductance; conditions: 1 μM in the pipette
Source text: On-cell patch clamp: Borosilicate pipettes (Corning 7052) pulled with a Narishige two stage puller or a Sutter P97 puller and fire-polished to resistances of 10-20 MΩ were front-filled and then backfilled. Symmetric bath and pipette solutions for studies of seal resistance stability during reversibility tests of the deoxygenation-activated conductance in SAD mouse red cells were (in mM) 140 NaCl, 4 KCl, 1 CaCl2, 1 MgCl2, 10 Na HEPES, pH 7.4. These conditions yielded tight seals in 13% of patch attempts on SAD cells. For study of deoxygenation-induced monovalent cation permeation in the absence of bath Ca^2+ and Mg^2+ recorded in SAD and Berkeley mouse cells and in human cells, symmetric bath and pipette solutions contained (in mM) 150 Na methanesulfonate, 10 Na EDTA, and 10 Na HEPES, pH 7.4. These conditions yielded tight seals in 16% of patch attempts on SAD mouse red cells, 26% of attempts on Berkeley mouse cells, and 30% of attempts on human SS cells. For study of Ca^2+ permeation in human SS cells, bath and pipette solutions contained (in mM) 100 CaCl2, 10 Na HEPES, pH 7.4. These conditions yielded tights seals on 44% of attempts. For all conditions tested in human red cells, 70% of tight seals were sustained through the solution change accompanying deoxygenation to allow recording of current activity.
On-cell patch currents were recorded with the Axopatch 1-D amplifier (Axon Instruments/Molecular Devices, Sunnyvale, Calif.). Holding potential was −Vp=−50 mV (expressed as the negative of the pipette potential (e.g., equivalent to the intracellular potential with respect to the pipette). To determine current-voltage relationships (I-V curves) in Fetchex or Clampex (PCLAMP, Axon Instruments), the realtime control window in gap-free mode was used to record current traces of 10-30 sec duration at holding potentials ranging from −100 to +100 mV, in 25 mV increments. The bath reference electrode was a silver chloride wire with a 3 M KCl agar bridge. Data was filtered at 500 Hz, digitized at 2 kHz by Clampex, and analyzed offline by Fetchan and Pstat or by Clampfit subroutines of PCLAMP. Holding potentials in on-cell patch experiments were expressed as −Vp, the negative of the pipette potential.
Deoxygenation-activated flickering cation conductance observed in human SS cells contrasted with the prolonged channel openings produced by 5 μM LPA (FIG. 10A). In SS cells, LPA increased NPo […], from 0.04±0.03 to 0.82±0.18 (n=8, p<0.001; Na methanesulfonate in bath and pipette, −Vp=−50 mV; FIG. 10B). LPA-induced cation conductance was 96% inhibited by 100 uM dipyridamole in the pipette, and 97% inhibited by 1 μM GsMTx-4 in the pipette (both n=4).

neurite = experiment: Neurite initiation and neurite length
Source text: The peptide GsMTx4 of the present invention can be prepared for pharmaceutical use by incorporation with a pharmaceutically acceptable carrier or diluent. The peptide can be formulated into tablets, capsules, caplets and the like. Suitable carriers for tablets include calcium carbonate, starch, lactose, talc, magnesium stearate and gum acacia. The peptide can also be formulated for oral, parenteral or intravenous administration in aqueous solutions, aqueous alcohol, glycol or oil solutions or emulsions. The peptide can also be formulated for inhaling by encapsulating to facilitate alveolar absorption as has been done for insulin (Inhale Therapeutic Systems, San Carlos, Calif., inhale.com). Pharmaceutical compositions suitable for such routes of administration are well known in the art. For example, suitable forms and compositions of pharmaceutical preparations can be found in Remington's Pharmaceutical Science, 1980, 15^thed. Mack Publishing Co., Easton, Pa. Thus, the peptide GsMTx4 can be administered orally, subcutaneously, parenterally, intravenously, intramuscularly or intranasally. The peptide may also be applied to medical devices that will come into contact blood. Both L and D enantiomers of GsMTx4's and its variants can be used for the present invention. We have previously shown that both L- and D-GsMTx4 block mechanosensitive channel (MSC) activity. Although, we have noted differences in the effects of these enantiomers, both forms are effective. For example, we have observed that the ability of the mirror image form (D-enantiomer) to inhibit mechanically activated ion channels is similar to the wild type peptide (L-form) (Suchyna et al 2004). […] Thus, both L and the D forms can be used in the present invention.

KCa3.1 = biological target: T1, KCa3.1 (Homo sapiens, UniProt O15554); experiment: A23187-stimulated KCa3.1 activity measured as 86Rb influx; conditions: 1 μM; intact human AA cells, 1 μM A23187, extracellular Ca2+; n=3
T1 construct: KCa3.1 activity stimulated in intact human AA cells by 1 μM A23187; endogenous in cells; host or cells: intact human AA red blood cells
T1 sequence (O15554 whole entry): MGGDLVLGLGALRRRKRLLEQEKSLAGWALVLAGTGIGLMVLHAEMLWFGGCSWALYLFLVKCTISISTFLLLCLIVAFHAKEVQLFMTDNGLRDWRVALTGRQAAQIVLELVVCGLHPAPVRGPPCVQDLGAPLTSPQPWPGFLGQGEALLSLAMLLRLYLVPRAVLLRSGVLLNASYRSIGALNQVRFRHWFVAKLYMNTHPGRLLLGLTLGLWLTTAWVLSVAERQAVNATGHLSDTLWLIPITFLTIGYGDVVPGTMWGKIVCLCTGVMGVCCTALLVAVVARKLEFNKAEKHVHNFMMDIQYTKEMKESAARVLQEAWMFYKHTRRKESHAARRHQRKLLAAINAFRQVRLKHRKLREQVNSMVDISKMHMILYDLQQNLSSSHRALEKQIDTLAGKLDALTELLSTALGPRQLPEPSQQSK

How did the “effect on LPA-induced increase in NPo” value [1] turn out when “Grammastola spatulata mechanotoxin 4 (GCLEFWWKCNPNDDKCCRPKLKCSKLFKLCNFSF; listed as Grammastola spatulata) [GsMTx-4]” was run?
Its value is “prevented”.

What about the “inhibition of LPA-induced cation conductance” value ([1]; 5 μM LPA, n=4) of the same substance?
Its value is 97%.

What about the “effect on neurite length” value (neurite) of the same substance?
Its value is “no significant effect”.

And the neurite initiation (neurite)?
Its neurite initiation is “stimulate”.

What about the “effect on KCa3.1 activity, 86Rb influx” value (KCa3.1) of the same substance?
The value was “no effect”.
